# From paper PMC10512030, “Prolidase-proline oxidase axis is engaged in apoptosis induction by birch buds flavonol santin in endometrial adenocarcinoma cell line” (Frontiers in Molecular Biosciences, 2023)
# Key:
# Type in all cases: cell-based, human
# [1] = system: cervical adenocarcinoma HeLa cells; assay: Cell viability MTT assay, HeLa; settings: Homo sapiens, HeLa, HeLa
# [2] = system: endometrial adenocarcinoma Ishikawa cells; assay: Cell viability MTT assay, Ishikawa; settings: Homo sapiens
# [3] = system: normal fibroblasts (dermal fibroblasts CCD25Sk); assay: Cell viability MTT assay, fibroblasts; settings: Homo sapiens, Fibroblast, Fibroblasts, read-out: IC50 values ± SD in MTT assay
# [4] = system: cervical adenocarcinoma HeLa cells; assay: Cell viability neutral red uptake assay, HeLa; settings: Homo sapiens
# [5] = system: endometrial adenocarcinoma Ishikawa cells; assay: Cell viability neutral red uptake assay, Ishikawa; settings: Homo sapiens
# [6] = system: normal fibroblasts (dermal fibroblasts CCD25Sk); assay: Cell viability neutral red uptake assay, fibroblasts; settings: Homo sapiens, Fibroblast, read-out: IC50 values ± SD in neutral red uptake assay
# [7] = system: breast epithelial cells MCF 10A; assay: Cell viability MTT assay, MCF 10A; settings: Homo sapiens, 48 h
# [8] = system: HeLa cells; assay: Colony formation assay, HeLa; settings: then fresh medium 7 days
# [9] = system: Ishikawa cells; assay: Colony formation assay, Ishikawa; settings: then fresh medium 7 days
# [10] = system: HeLa cells; assay: Apoptosis assay, annexin V-FITC / propidium iodide flow cytometry, HeLa; settings: 48 h
# [11] = system: Ishikawa cells; assay: Apoptosis assay, annexin V-FITC / propidium iodide flow cytometry, Ishikawa; settings: 48 h
# [12] = system: prolidase; assay: Prolidase activity in homogenates of treated cells; settings: 48 h
# Experimental: The activity of prolidase in cell homogenates was determined according to the method of ([Myara et al., 1982]). Briefly, prolidase was activated by overnight incubation of homogenates with 1 mM MnCl2 at 37°C. Then, the substrate (Gly-Pro, 100 mM) was added to each sample, followed by incubation at 37°C for 1 h. The reaction was stopped with […] trichloracetic acid and samples were then centrifuged at 15,000 × g for 10 min. After adding acetic acid and Chinard’s reagent to collected supernatant, the mixtures were incubated at 90°C for 10 min. Samples were allowed to come to room temperature and then absorbance was measured at 515 nm. Enzyme activity was reported as nanomoles of proline released from the synthetic substrate during 1 min/mg of total proteins of cell homogenate.
# [13] = system: proline oxidase; assay: Western immunoblot of proline oxidase in treated cells; settings: 48 h
# Experimental: (§1) Adherent and floating cells were harvested and sonicated. Obtained homogenates were supplemented with 1% protease and phosphatase inhibitor cocktail (#78440, Thermo Fisher Scientific). The Lowry assay was performed to quantify protein content in the homogenates. Proteins (20–40 μg) were resolved on 7.5%, 10%, or 12% SDS-PAGE gels using the Mini-Protean Tetra system (Bio-Rad). Proteins were transferred to nitrocellulose membranes (Bio-Rad) using the Mini Trans-Blot Cell wet blotting system (Bio-Rad). Membranes were blocked with 5% skim milk for 1 h at room temperature and probed overnight at 4°C with primary antibodies. […] Membranes were incubated with ECL-HRP substrate (GE Healthcare), and the signal was detected using the BioSpectrum Imaging System (Ultra-Violet Products, Ltd.). Intensity of the bands was quantified by densitometric analysis using VisionWorks LS software (Ultra-Violet Products, Ltd.).
# [14] = system: prolidase; assay: Western immunoblot of prolidase in treated cells; settings: santin, 48 h
# Experimental: as §1
# [15] = system: intracellular ROS; assay: Analysis of intracellular ROS with DCFDA; settings: santin 1 h
# Experimental: The oxidation-sensitive dye, 2′, 7′-dichlorofluorescein diacetate (DCFDA, D6883, Sigma-Aldrich), was used to determine the formation of intracellular ROS. Assay is based on the diffusion of DCFDA into the cell, where it is deacetylated by cellular esterases to a non-fluorescent compound, which is later oxidised by ROS into highly fluorescent 2′, 7′-dichlorofluorescein. […] Cells were treated with santin at concentrations of 6.2, 12.5, and 25 μM for 1, 24, or 48 h. Culture medium was discarded and the cells were washed with PBS and incubated with 10 μM DCFDA at 37°C for 30 min. Cell images were taken with fluorescence microscope.
# [16] = 48 h, negative control siRNA transfected cells, 48 h, read-out: IC50, MTT assay
# [17] = 48 h, non-transfected cells, 48 h, read-out: IC50, MTT assay
# [18] = 48 h, p53-silenced cells, 48 h, read-out: IC50, MTT assay
# [19] = 48 h, prolidase-silenced cells, 48 h, read-out: IC50, MTT assay
# [20] = 48 h, proline oxidase-silenced cells, 48 h, read-out: IC50, MTT assay
# [21] = 24 h, NAC treated (2 mM N-acetyl-L-cysteine preincubation 2 h), read-out: IC50, neutral red uptake assay
# [22] = 24 h, read-out: IC50 values ± SD in neutral red uptake assay
# [23] = 24 h, without NAC, read-out: IC50, neutral red uptake assay
# [24] = 48 h, NAC treated (2 mM N-acetyl-L-cysteine preincubation 2 h), read-out: IC50, neutral red uptake assay
# [25] = 48 h, read-out: IC50 values ± SD in neutral red uptake assay
# [26] = 48 h, without NAC, read-out: IC50, neutral red uptake assay
smiles,measurement,setting,value
"COc1ccc(-c2oc3cc(O)c(OC)c(O)c3c(=O)c2OC)cc1 [santin, 5,7-dihydroxy-3,6,4′-trimethoxyflavone]",IC50,"[1]; 24 h, 24 h, read-out: IC50 values ± SD in MTT assay",17.8 ± 2 µM
same,IC50,"[1]; 48 h, 48 h, read-out: IC50 values ± SD in MTT assay",7 ± 0.8 µM
same,IC50,[1]; [16],7.3 ± 1.1 µM
same,IC50,[1]; [17],7.2 ± 0.9 µM
same,IC50,[1]; [18],10.9 ± 1.9 µM
same,IC50,[1]; [19],7.8 ± 1 µM
same,IC50,[1]; [20],11.2 ± 1.3 µM
same,IC50,"[2]; 24 h, read-out: IC50 values ± SD in MTT assay",12.9 ± 1.1 µM
same,IC50,[2]; [16],5.9 ± 0.9 µM
same,IC50,[2]; [17],5.7 ± 0.8 µM
same,IC50,[2]; [18],5.9 ± 1.1 µM
same,IC50,[2]; [19],11.1 ± 1.9 µM
same,IC50,[2]; [20],14 ± 2 µM
same,IC50,"[2]; 48 h, read-out: IC50 values ± SD in MTT assay",5.1 ± 0.9 µM
same,IC50,[3]; 24 h,> 50 µM
same,IC50,[3]; 48 h,> 50 µM
same,IC50,[4]; [21],25.6 ± 2.4 µM
same,IC50,[4]; [22],5.5 ± 1.3 µM
same,IC50,[4]; [23],18.2 ± 2 µM
same,IC50,[4]; [24],11.6 ± 1.4 µM
same,IC50,[4]; [25],5.4 ± 0.8 µM
same,IC50,[4]; [26],6.9 ± 1.1 µM
same,IC50,[5]; [21],25.6 ± 2.1 µM
same,IC50,[5]; [22],6.2 ± 1 µM
same,IC50,[5]; [23],12.7 ± 1.3 µM
same,IC50,[5]; [24],11 ± 1.4 µM
same,IC50,[5]; [25],5.9 ± 1.1 µM
same,IC50,[5]; [26],4.8 ± 1 µM
same,IC50,[6]; 24 h,> 50 µM
same,IC50,[6]; 48 h,> 50 µM
same,IC50,[7],12.1 ± 1.7 µM
same,decrease of number of colonies,[8]; santin 6.2 μM for 48 h,49%
same,decrease of number of colonies,[8]; santin 12.5 μM for 48 h,85%
same,decrease of number of colonies,[9]; santin 6.2 μM for 48 h,53%
same,decrease of number of colonies,[9]; santin 12.5 μM for 48 h,84%
same,"% early apoptotic cells (annexin V/PI plot, lower right quadrant)",[10]; santin 6.2 μM,27% ± 4%
same,"% late apoptotic cells (annexin V/PI plot, upper right quadrant)",[10]; santin 6.2 μM,30% ± 3%
same,"% early apoptotic cells (annexin V/PI plot, lower right quadrant)",[10]; santin 12.5 μM,39% ± 5%
same,"% late apoptotic cells (annexin V/PI plot, upper right quadrant)",[10]; santin 12.5 μM,38% ± 4%
same,"% early apoptotic cells (annexin V/PI plot, lower right quadrant)",[11]; santin 6.2 μM,35% ± 4%
same,"% late apoptotic cells (annexin V/PI plot, upper right quadrant)",[11]; santin 6.2 μM,15% ± 2%
same,"% early apoptotic cells (annexin V/PI plot, lower right quadrant)",[11]; santin 12.5 μM,55% ± 5%
same,"% late apoptotic cells (annexin V/PI plot, upper right quadrant)",[11]; santin 12.5 μM,21% ± 3%
same,decrease of prolidase activity (minimum value),"[12]; HeLa cells, 100 μM santin",71%
same,increase of prolidase activity (maximum),"[12]; Ishikawa cells, 50 μM santin",160%
same,proline oxidase expression (Western blot),"[13]; HeLa cells, santin 6.2 and 12.5 μM",increased proline oxidase expression
same,proline oxidase expression (Western blot),"[13]; Ishikawa cells, santin",downregulated
same,prolidase expression (Western blot),[14]; HeLa cells,downregulated prolidase expression
same,prolidase expression (Western blot),[14]; Ishikawa cells,increased its level
same,ROS generation (DCFDA fluorescence),[15]; HeLa cells,significant increase
same,ROS generation (DCFDA fluorescence),[15]; Ishikawa cells,massive ROS generation
